The values that follow are results of earlier work, collected in patent US10143669B2, “Use of short chain fatty acids in cancer prevention” (Temple University-Of The Commonwealth System of Higher …, priority 2015, dated 2018).

One series concerns HBx transgenic mice. To be noted: Arzumanyan A et al., Cancer Res, 2012.
The next series has as its system established tumor. To be noted: Bindels L B et al., Br J Cancer, 2012.
Series [1] has as its system Hepatocellular carcinoma (HCC). To be noted: Peck-Radosavljevic M, Liver Cancer, 2014.

In the case of `CS(=O)(=O)c1ccc(C(=O)Nc2ccc(Cl)c(-c3ccccn3)c2)c(Cl)c1` [GDC-0449], in the series on HBx transgenic mice, the “number and size of tumors in HBx transgenic mice” value is “decreased the number and size of tumors”. Consider `CCC(=O)O` [proprionate], for which the “growth of an established tumor” value in the series with established tumor is recorded as “reduce the growth”. Consider `CNC(=O)c1cc(Oc2ccc(NC(=O)Nc3ccc(Cl)c(C(F)(F)F)c3)cc2)ccn1` [sorafenib], for which the “life expectancy extended, average” value in series [1] is reported as 3 months.
